Measured values: article PMC9532755, “Impact of lactisole on the time-intensity profile of selected sweeteners in dependence of the binding site” (Food Chemistry: X, 2022)
Peptide text beside a SMILES is read from it.

Biological target: T1, human sweet taste receptor TAS1R2/TAS1R3 (Homo sapiens, UniProt Q7RTX0+Q8TE23)
T1 construct: expressed in transfected cells; host or cells: HEK293 Flp-In T-Rex cells; Gα15Gi3 and TAS1R2 constitutive, TAS1R3 tetracycline-inducible
T1 sequence (Q8TE23 20-839): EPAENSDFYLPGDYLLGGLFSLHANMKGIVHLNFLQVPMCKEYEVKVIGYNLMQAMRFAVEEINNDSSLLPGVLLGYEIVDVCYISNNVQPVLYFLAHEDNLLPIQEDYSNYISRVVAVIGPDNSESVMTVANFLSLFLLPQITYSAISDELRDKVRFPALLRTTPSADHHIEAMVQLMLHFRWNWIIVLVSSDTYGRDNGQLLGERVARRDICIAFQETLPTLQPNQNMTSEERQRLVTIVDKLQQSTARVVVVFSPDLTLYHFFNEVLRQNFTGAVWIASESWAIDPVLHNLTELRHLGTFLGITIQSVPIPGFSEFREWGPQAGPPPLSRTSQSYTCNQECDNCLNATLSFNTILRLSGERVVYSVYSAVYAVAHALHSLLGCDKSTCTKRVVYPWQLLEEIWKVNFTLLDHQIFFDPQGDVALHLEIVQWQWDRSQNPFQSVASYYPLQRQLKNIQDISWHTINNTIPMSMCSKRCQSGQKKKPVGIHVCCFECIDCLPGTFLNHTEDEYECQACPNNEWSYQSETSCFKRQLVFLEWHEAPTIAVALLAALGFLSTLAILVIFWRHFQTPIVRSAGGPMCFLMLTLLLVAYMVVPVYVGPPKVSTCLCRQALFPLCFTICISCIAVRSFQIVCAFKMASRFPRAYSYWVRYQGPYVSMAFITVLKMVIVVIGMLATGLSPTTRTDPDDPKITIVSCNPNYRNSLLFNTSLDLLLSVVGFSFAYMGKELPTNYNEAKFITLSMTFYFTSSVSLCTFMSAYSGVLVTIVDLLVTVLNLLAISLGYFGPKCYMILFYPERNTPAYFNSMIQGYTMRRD
T1 sequence (Q7RTX0 21-852): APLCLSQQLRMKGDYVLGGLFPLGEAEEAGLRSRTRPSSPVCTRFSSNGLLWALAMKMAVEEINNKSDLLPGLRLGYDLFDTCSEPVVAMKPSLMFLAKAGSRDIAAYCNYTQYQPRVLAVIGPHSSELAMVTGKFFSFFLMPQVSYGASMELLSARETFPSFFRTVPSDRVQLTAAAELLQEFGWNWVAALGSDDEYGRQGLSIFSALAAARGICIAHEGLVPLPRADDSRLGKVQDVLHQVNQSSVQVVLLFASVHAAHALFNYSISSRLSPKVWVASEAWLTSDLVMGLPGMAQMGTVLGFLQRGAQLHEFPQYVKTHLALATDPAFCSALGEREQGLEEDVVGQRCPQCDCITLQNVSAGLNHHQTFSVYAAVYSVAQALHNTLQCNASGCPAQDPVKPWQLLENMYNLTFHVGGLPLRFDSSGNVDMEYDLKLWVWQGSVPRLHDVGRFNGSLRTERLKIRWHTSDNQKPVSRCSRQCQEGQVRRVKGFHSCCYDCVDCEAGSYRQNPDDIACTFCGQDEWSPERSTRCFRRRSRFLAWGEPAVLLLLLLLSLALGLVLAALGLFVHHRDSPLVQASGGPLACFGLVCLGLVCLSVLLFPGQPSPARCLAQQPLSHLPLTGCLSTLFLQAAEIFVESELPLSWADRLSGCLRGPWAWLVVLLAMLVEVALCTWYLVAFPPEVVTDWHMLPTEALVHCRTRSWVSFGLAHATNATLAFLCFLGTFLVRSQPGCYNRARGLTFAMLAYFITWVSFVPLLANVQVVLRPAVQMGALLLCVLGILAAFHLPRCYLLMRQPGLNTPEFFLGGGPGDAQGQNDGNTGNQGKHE
Assay: Calcium mobilization assay in HEK293 Flp-In T-Rex-Gα15Gi3-TAS1R2/TAS1R3 cells (FLIPR, Fluo-4)
Assay type: cell-based
Details: for mode of inhibition by lactisole (shift of dose-response curve), cell experiments: combination with 10, 30, 100 μM lactisole; for time until reaching peak activity after agonist application / time where signal decreased below 50 % of the maximum signal amplitude, after agonist application: counted from agonist application at 20 sec; for time until reaching peak activity after agonist application / time where signal decreased below 50 % of the maximum signal amplitude, after agonist application / time until reaching the peak amplitude / time where signal decreased below 50 % of the maximum signal amplitude / time of signal decay back to baseline / time signal stayed above initial baseline: 1 mM Ace K, 3 mM aspartame, 10 mM cyclamate, 0.3 mM NHDC; for time until reaching the peak amplitude: including 20 sec of baseline monitoring prior to agonist application; for time where signal decreased below 50 % of the maximum signal amplitude: including 20 sec of baseline monitoring; for time of signal decay back to baseline / time signal stayed above initial baseline: raw fluorescence traces; for EC50: w/o lactisole, agonist concentrations on x-axis in mM, 3 independent experiments in duplicates, read-out: EC50 of TAS1R2/TAS1R3 activation (ΔF/F)
Experimental: For the functional characterization of the human sweet taste receptor, we used HEK293 Flp-In T-Rex cells stably transfected with the G protein chimera Gα15Gi3, and the two subunits of the human sweet taste receptor, TAS1R2 and TAS1R3 ([Galindo-Cuspinera et al., 2006]). The G protein chimera and TAS1R2 subunit are constitutively expressed, whereas the expression of the TAS1R3 subunit is inducible through addition of 0.5 µg/mL tetracycline. The experiments were done exactly as before ([Behrens et al., 2017], [Ben Abu et al., 2021]). Briefly, cells were seeded into 96-well plates (black, flat clear bottom) treated with 10 µg/mL poly-D-lysine and grown in low-glucose DMEM supplemented with 10 % fetal bovine serum, 100 U Penicillin/mL, 0.1 mg/mL Streptomycin, 2 mM L-glutamine, at 37 °C, 5 % CO2, saturated air-humidity overnight. About 24 h before the experiment tetracycline was added to induce TAS1R3 expression. Next, cells were loaded for 1 h with Fluo-4 am in the presence of 2.5 mM probenecid and washed twice with C1-buffer (130 mM NaCl, 5 mM KCl, 10 mM HEPES, 1 mM sodium pyruvate, and 2 mM CaCl2, pH 7.4). Then, plates were placed in a fluorometric imaging plate reader (FLIPR^tetra, Molecular Devices, San Jose, CA, United States) for automated compound application and measurement of fluorescence changes. Fluorescence changes of control wells not induced with tetracycline were subtracted from the data. Next, measurements were corrected for background fluorescence. Dose-response relationships of three independent experiments each performed in duplicates were calculated with SigmaPlot 14.0 software using the function f(x) = min+(max − min)/(1+(x/EC50)^nH).
TI-ratings were recorded and analyzed using the software EyeQuestion® 4.11.74 (Logic8 BV, NL) online and MS Excel 16.0 (Microsoft Corporation, USA). The statistical analysis and graphical representation were performed with GraphPad Prism 9.0 for sensory results and with SigmaPlot 14.0 for cell experiments. To evaluate the sensory dose–response effects of ascending sweetener concentration w/o lactisole, an asymmetrical five-parameter curve (Richard́s five-parameter dose–response curve) was fitted. The data are presented as means ± SEM from at least 16 single evaluations. Statistical significance between the different test compounds and concentration-dependent effects was assessed by two-way ANOVAs with Tukey post hoc test using Graph Pad Prism. The normal distribution of the data sets was checked by evaluation of the kurtosis (between −7 to + 7) and the skewness (between −3 to + 3). Equal variance was tested using Levenés test. In case the assumptions of a normal distribution and equal variance were not met, the non-parametric ANOVA on ranks (Kruskal-Wallis Test) with Dunn's post-hoc test without the calculation of interaction was applied. A Pearson product moment correlation was conducted to investigate relationships between sensory results and cell responses of the tested sweeteners.

Row | SMILES | mode of inhibition by lactisole (shift of dose-response curve), cell experiments | time until reaching peak activity after agonist application | time where signal decreased below 50 % of the maximum signal amplitude, after agonist application | time until reaching the peak amplitude | time where signal decreased below 50 % of the maximum signal amplitude | time of signal decay back to baseline / time signal stayed above initial baseline | EC50
1 | COc1ccc(CCC(=O)c2c(O)cc(O[C@@H]3O[C@H](CO)[C@@H](O)[C@H](O)[C@H]3O[C@@H]3O[C@@H](C)[C@H](O)[C@@H](O)[C@H]3O)cc2O)cc1O [NHDC, neohesperidin dihydrochalcone] | competitive inhibition | 27 s | 87 s | 47 s | 107 s | ≥ 6 min | 0.05 ± 0.01 mM
2 | CC1=CC(=O)NS(=O)(=O)O1 [acesulfame K] | Allosteric inhibition | 27 s | 65 s | 47 s | 85 s | about 3 min | 0.36 ± 0.04 mM
3 | COC(=O)[C@H](Cc1ccccc1)NC(=O)[C@@H](N)CC(=O)O [aspartame] (H-Asp-Phe-OMe) | Allosteric inhibition | 23 s | 73 s | 43 s | 93 s | ≥ 6 min | 0.33 ± 0.02 mM
4 | O=S(=O)(O)NC1CCCCC1 [cyclamate] | competitive inhibition | 19 s | 73 s | 39 s | 93 s | ≥ 6 min | 1.51 ± 0.11 mM
